Reference: patent US10300074B2, “Use of inhibitor of apoptosis protein (IAP) antagonists in HIV therapy” (Sanford-Burnham Medical Research Institute, priority 2014, dated 2019)

Assays:
XIAP BIR1/2 = XIAP BIR1/2 (Homo sapiens (Human), UniProt P98170); assay: XIAP BIR1/2 Ki; assay type: binding; settings: Table B-1
XIAP BIR3 = XIAP BIR3 (Homo sapiens (Human), UniProt P98170); assay: XIAP BIR3 Ki; assay type: binding; settings: Table B-1
ML-IAP = ML-IAP (Homo sapiens (Human), UniProt Q96CA5); assay: ML-IAP Ki; assay type: binding; settings: Table B-1
Sequence of ML-IAP (Q96CA5 whole entry): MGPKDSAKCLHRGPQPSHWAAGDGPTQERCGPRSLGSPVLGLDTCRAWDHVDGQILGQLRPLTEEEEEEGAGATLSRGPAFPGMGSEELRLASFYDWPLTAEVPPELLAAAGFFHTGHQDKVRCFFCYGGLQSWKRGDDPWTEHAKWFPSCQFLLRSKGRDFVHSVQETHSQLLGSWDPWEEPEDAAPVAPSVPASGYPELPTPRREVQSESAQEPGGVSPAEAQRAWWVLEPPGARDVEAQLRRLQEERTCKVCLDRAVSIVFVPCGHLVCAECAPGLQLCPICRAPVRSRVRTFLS

[1] = test system: HEK 293T cells infected with HIV-VSVg; assay type: cell-based
[2] = test system: latently infected JLat 10.6 cells; settings: for Reactivation of latent HIV (GFP reporter expression): single agent, 24 hours; for Activation of HIV transcription, combination versus components alone: in combination with Compound 35, 24 hours
[3] = test system: Latently infected Jurkat JLat 10.6 cells; settings: HDAC inhibitor in combination with Compound 35, 36 hours, normalized against background of HDAC inhibitor alone

Sequence of XIAP BIR3 (P98170 241-356): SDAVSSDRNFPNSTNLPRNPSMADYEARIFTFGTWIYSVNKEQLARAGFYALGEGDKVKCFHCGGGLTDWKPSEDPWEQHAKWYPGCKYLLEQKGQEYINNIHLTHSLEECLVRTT
Sequence of XIAP BIR1/2 (P98170 1-240): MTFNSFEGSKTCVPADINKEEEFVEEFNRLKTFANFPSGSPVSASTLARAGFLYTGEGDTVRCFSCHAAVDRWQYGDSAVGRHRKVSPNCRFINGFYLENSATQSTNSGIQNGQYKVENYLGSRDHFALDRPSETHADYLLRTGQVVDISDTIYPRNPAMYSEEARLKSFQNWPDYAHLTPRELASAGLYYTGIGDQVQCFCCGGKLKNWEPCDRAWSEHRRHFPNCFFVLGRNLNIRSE

`CN[C@@H](C)C(=O)N[C@H]1CCS[C@H]2CCC(C(=O)N[C@@H]3CCCc4ccccc43)N2C1=O` (stereo partly shown) [Compound 24] was tested, and the Ki (XIAP BIR1/2) was > 50 µM, the Ki (XIAP BIR3) was ≤ 25 µM and the Ki (ML-IAP) was ≤ 25 µM.
In the case of `CN[C@@H](C)C(=O)N[C@H]1CCO[C@H]2CC(C)(C)[C@@H](C(=O)N[C@@H]3CCCc4ccccc43)N2C1=O` [Compound 26], the Ki (XIAP BIR1/2) is reported as ≤ 25 µM, the Ki (XIAP BIR3) is reported as ≤ 25 µM and the Ki (ML-IAP) is reported as ≤ 25 µM.
In the case of `CN[C@@H](C)C(=O)N[C@H]1CCO[C@H]2c3ccccc3C(C(=O)N[C@@H]3CCCc4ccccc43)N2C1=O` (stereo partly shown) [Compound 27], the Ki (XIAP BIR1/2) is reported as > 50 µM, the Ki (XIAP BIR3) is reported as ≤ 25 µM and the Ki (ML-IAP) is reported as ≤ 25 µM.
In the case of `CN[C@@H](C)C(=O)N[C@H]1CCO[C@H]2CC[C@@H](C(=O)N[C@@H]3CCOc4ccccc43)N2C1=O` [Compound 32], the Ki (XIAP BIR1/2) is reported as > 50 µM, the Ki (XIAP BIR3) is reported as ≤ 25 µM and the Ki (ML-IAP) is reported as ≤ 25 µM.
For `CN[C@@H](C)C(=O)N[C@H]1CCO[C@H]2CC[C@@H](C(=O)N[C@@H]3CCCc4ccccc43)N2C1=O` [Compound 33], the Ki (XIAP BIR1/2) was > 50 µM, the Ki (XIAP BIR3) was ≤ 25 µM and the Ki (ML-IAP) was ≤ 25 µM.
`CN[C@@H](C)C(=O)N[C@H]1CCS[C@H]2CC[C@@H](C(=O)N[C@@H]3CCCc4ccccc43)N2C1=O` [Compound 34] was tested, and the Ki (XIAP BIR1/2) was > 50 µM, the Ki (XIAP BIR3) was ≤ 25 µM and the Ki (ML-IAP) was ≤ 25 µM.
For `CN[C@@H](C)C(=O)N[C@H]1CCS[C@H]2CC(C)(C)C(C(=O)N[C@@H]3CCCc4ccccc43)N2C1=O` (stereo partly shown) [Compound 35], the Ki (XIAP BIR1/2) was ≤ 25 µM, the Ki (XIAP BIR3) was ≤ 25 µM and the Ki (ML-IAP) was ≤ 25 µM. For the same compound, the “Viral gene transcription as measured by luciferase expression” value [1] was “enhancement of viral gene transcription, as measured by luciferase expression, was proportional to the loss of BIRC2/cIAP1 protein” and the “Reactivation of latent HIV (GFP reporter expression)” value [2] was “caused reactivation of HIV”.
`CN[C@@H](C)C(=O)N[C@H]1CCS[C@H]2CC[C@H](C(=O)N[C@@H]3CCCc4ccccc43)N2C1=O` [Compound 36] was tested, and the Ki (XIAP BIR1/2) was > 50 µM, the Ki (XIAP BIR3) was ≤ 25 µM and the Ki (ML-IAP) was ≤ 25 µM.
For `CN[C@@H](C)C(=O)N[C@H]1CCO[C@H]2CC3(CC=CC3)C(C(=O)N[C@@H]3CCCc4ccccc43)N2C1=O` (stereo partly shown) [Compound 42], the Ki (XIAP BIR1/2) was ≤ 25 µM, the Ki (XIAP BIR3) was ≤ 25 µM and the Ki (ML-IAP) was ≤ 25 µM.
With `CN[C@@H](C)C(=O)N[C@H]1CC(=O)N[C@H]2CC(C)(C)C(C(=O)N[C@@H]3CCCc4ccccc43)N2C1=O` (stereo partly shown) [Compound 46] the Ki (XIAP BIR1/2) was > 50 µM, the Ki (XIAP BIR3) was ≤ 25 µM and the Ki (ML-IAP) was ≤ 25 µM.
For `CC(=O)NCCCCCCNC(C)=O` [HMBA, hexamethylbisacetamide], the “Activation of HIV transcription, combination versus components alone” value [2] was “greater effect than treatment with any of the components alone”.
For `Cc1[nH]c2ccccc2c1CCNCc1ccc(/C=C/C(=O)NO)cc1` [Panobinostat, panobinostat], the “Activation of HIV transcription, combination versus components alone” value [2] was “greater effect than treatment with any of the components alone”.
In the case of `CC[C@H](NC(=O)[C@H](C)NC)C(=O)N1C[C@@H](O)C[C@H]1Cc1c(-c2[nH]c3cc(F)ccc3c2C[C@@H]2C[C@H](O)CN2C(=O)[C@H](CC)NC(=O)[C@H](C)NC)[nH]c2cc(F)ccc12` [TL32711], the “Reactivation of latent HIV (GFP reporter expression)” value [2] is reported as “Reactivation of latent HIV in JLat 10.6 cells was achieved”.
For `O=C(CCCCCCC(=O)Nc1ccccc1)NO` [Vorinostat, vorinostat], the “Activation of HIV transcription, combination versus components alone” value [2] was “greater effect than treatment with any of the components alone” and the “Group: increase of GFP+ cells” value [3] was “A (A 0-25%)”.
